Assay: Inhibition of rat intestinal alpha-glucosidase

IC50: 51.5 µM
Structure (SMILES): COc1ccc(C=CC(=O)C[C@@H]2O[C@H](CO)[C@@H](O)[C@H](O)[C@H]2O)cc1OC [(E)-4-(3,4-dimethoxyphenyl)-1-((2S,3R,4R,5S,6R)-3,4,5-trihydroxy-6-(hydroxymethyl)tetrahydro-2H-pyran-2-yl)but-3-en-2-one]

From BindingDB's records for doi:10.1016/j.bmcl.2009.03.136 (Central Drug Research Institute, 2009)
